Assay results: patent publication US5877030A, “Process for creating molecular diversity and novel protease inhibitors produced thereby” (priority 1995, dated 1999)

Experiments:
[1] = molecular target: T1, trypsin (Bos taurus, UniProt P00760); test: Trypsin inhibitor assay (trypsin-catalyzed hydrolysis of BAPA, absorbance at 410 nm), iterative screening of libraries; type: biochemical; conditions: comparison in words
T1 sequence (P00760 24-246): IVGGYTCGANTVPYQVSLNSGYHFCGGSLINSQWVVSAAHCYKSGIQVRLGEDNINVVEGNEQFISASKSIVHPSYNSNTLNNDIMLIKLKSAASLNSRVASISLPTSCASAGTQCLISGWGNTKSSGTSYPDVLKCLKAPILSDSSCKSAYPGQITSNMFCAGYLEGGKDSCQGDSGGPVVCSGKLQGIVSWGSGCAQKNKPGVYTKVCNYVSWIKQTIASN
Protocol: Each sub-library 1A-1F was tested for its ability to inhibit trypsin activity and the percent trypsin activity was correlated to the specific tool molecule group (see Table 3) that had been omitted during synthesis of the sub-library being assayed.

[2] = molecular target: T1, trypsin; test: Ki determination on trypsin (BAPA substrate, Michaelis-Menten / reciprocal plots); type: biochemical; conditions: for Ki: preliminary investigations
Protocol: The rate of the trypsin catalyzed reaction was determined by monitoring the increase in absorbance at 410 nm over time. In all measurements 5% (v/v) of dimethylsulfoxide (DMSO) was added to solubilize the libraries. For a typical assay, 50 μL of a library solution in DMSO and 10 μL of the trypsin stock solution (2.5 mg trypsin in 25 mL 0.001M HCl) were added to 5 mL of buffer (0.5M Tris-HCl, 0.16M CaCl21 pH 8.2) at 25° C. In regard to FIG. 19, the library solutions used for Charts A and B contained 2.5 mg in 50 μL DMSO; the library solution for Chart C contained 1 mg in 50 AL DMSO and the library solution for Chart D contained 0.5 mg in 50 μL DMSO.
After incubating for 10 min., the cloudy mixture was centrifuged, 0.4 mL of the clear supernatant was removed and diluted with 400 μL of buffer in a disposable 1.5 mL UV cuvette. Then, 50 μL of the BAPA (defined below) stock solution (50 mg BAPA in 5 mL DMSO) was added and the increase in absorbance at 410 nm was monitored. The trypsin activity was compared to a reference cuvette without added library material (B).
Methods for determining the Ki of an enzyme inhibitor would be known to those of ordinary skill in the art. (See also "Enzyme Kinetics & Behavior, Analysis of Rapid Equilibrium, and Steady State Enzyme Systems", ed. Segel, John Wiley & Sons, Inc., N.Y., N.Y. (1993), the contents of which are incorporated herein by reference.) A summary of the procedure used to obtain the Ki value for compound of Formula V.

[3] = test system: thrombin; test: Specificity against other proteases such as thrombin (initial experiments); type: biochemical
[4] = rat model; Sobajima et al.; cited from earlier work

| mode of inhibition of trypsin ([2]; 1/velocity vs. 1/(substrate concentration), five inhibitor concentrations 1×10^-6 M to 1×10^-4 M) | Ki ([2]; 'in the 10 μM range') [µM] | Ki ([2]; trypsin 7.4×10^-8 M, BAPA 2×10^-4 M to 7×10^-3 M, inhibitor 1×10^-6 M to 1×10^-4 M) [µM] | Compound | activity relative to structural isomer Formula VI [1] | interference with other proteases, such as thrombin [3] | treatment of severe acute pancreatitis [4] |
| --- | --- | --- | --- | --- | --- | --- |
| competitive inhibitor of trypsin | ~10 | ~9 | CC[C@H](C)[C@H](NC(=O)c1cc(C(=O)N2CCC[C@H]2C(=O)O)cc2c1Oc1c(C(=O)N[C@@H](CCCCN)C(=O)OC)cc(C(=O)N[C@H](C(=O)O)C(C)C)cc1C2(C)C)C(=O)O [Formula V] | significantly more active than its structural isomer Formula VI | does not interfere with other proteases, such as thrombin |  |
|  |  |  | CS(=O)(=O)O.N=C(N)Nc1ccc(C(=O)Oc2ccc(SCCN3C(=O)CCC3=O)cc2)cc1 [4-(2-succinimidoethylthio)-phenyl 4-guanidinobenzoate methane sulfonate] |  |  | treating severe acute pancreatitis |
